# Experimental data from patent US11084800B2 (Achillion Pharmaceuticals, Inc., priority 2017, dated 2021).
# Biological target: Human Factor D (Homo sapiens (Human), UniProt P00746)
# Assay: Human Factor D Assay
# Format: biochemical
# Settings: Factor D inhibition, assay of Example 10; read-out: IC5 (Stars)
# How it was run: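 Thioester substrate Z-L-Lys-SBz (100 μM) with Ellman's reagent DTNB (100 μM) reports activity of 80 nM human serum-derived enzyme, kinetically at 405 nm over 30 min. Compound preincubated 5 min, room temperature, pH 7.5 Tris/1 M NaCl; IC50 by nonlinear fit of rates.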
# Chain of Human Factor D (P00746 26-253): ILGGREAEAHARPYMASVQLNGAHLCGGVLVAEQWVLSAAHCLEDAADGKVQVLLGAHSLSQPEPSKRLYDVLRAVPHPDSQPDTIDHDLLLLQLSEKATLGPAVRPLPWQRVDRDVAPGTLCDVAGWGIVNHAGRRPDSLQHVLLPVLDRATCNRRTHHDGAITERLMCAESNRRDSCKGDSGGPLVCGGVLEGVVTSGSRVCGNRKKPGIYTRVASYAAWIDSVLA
row,SMILES,IC50 [nM]
1,"CC(=O)c1nn(CC(=O)N2[C@H](C(=O)Nc3nc(Br)ccc3CN3CCn4c(nnc4C(F)(F)F)C3)C[C@@]3(C)C[C@@H]23)c2ccc(-c3cnc(C)nc3)cc12 [Compound 357, (1R,3S,5R)-2-(2-(3-acetyl-5-(2-methylpyrimidin-5-yl)-1H-indazol-1-yl)acetyl)-N-(6-bromo-3-((3-(trifluoromethyl)-5,6-dihydro-[1,2,4]triazolo[4,3-a]pyrazin-7(8H)-yl)methyl)pyridin-2-yl)-5-methyl-2-azabicyclo[3.1.0]hexane-3-carboxamide]",< 1000
2,"CC(=O)c1nn(CC(=O)N2[C@H](C(=O)Nc3nc(Br)ccc3C)C[C@@]3(Cc4nnco4)C[C@@H]23)c2c(C)cc(-c3cnc(C)nc3)cc12 [Compound 359, (1R,3S,5R)-5-((1,3,4-Oxadiazol-2-yl)methyl)-2-(2-(3-acetyl-7-methyl-5-(2-methylpyrimidin-5-yl)-1H-indazol-1-yl)acetyl)-N-(6-bromo-3-methylpyridin-2-yl)-2-azabicyclo[3.1.0]hexane-3-carboxamide]",< 1000
3,"CC(=O)c1nn(CC(=O)N2[C@H](C(=O)Nc3nc(Br)ccc3C)C[C@@]3(Cc4nnc(C)o4)C[C@@H]23)c2c(C)cc(-c3cnc(C)nc3)cc12 [Compound 360, (1R,3S,5R)-2-(2-(3-acetyl-7-methyl-5-(2-methylpyrimidin-5-yl)-1H-indazol-1-yl)acetyl)-N-(6-bromo-3-methylpyridin-2-yl)-5-((5-methyl-1,3,4-oxadiazol-2-yl)methyl)-2-azabicyclo[3.1.0]hexane-3-carboxamide]",< 1000
4,"Cc1ncc(-c2cc3c(C(N)=O)nn(CC(=O)N4[C@H](C(=O)Nc5nc(Br)ccc5C)C[C@@]5(C)C[C@@H]45)c3cn2)cn1 [Compound 361, 1-(2-((1R,3S,5R)-3-((6-bromo-3-methylpyridin-2-yl)carbamoyl)-5-methyl-2-azabicyclo[3.1.0]hexan-2-yl)-2-oxoethyl)-5-(2-methylpyrimidin-5-yl)-1H-pyrazolo[3,4-c]pyridine-3-carboxamide]",< 1000
5,"CC(=O)c1nn(CC(=O)N2[C@H](C(=O)Nc3nc(Br)ccc3-c3nnc(C(C)C)o3)C[C@@]3(C)C[C@@H]23)c2ccc(-c3cnc(C)nc3)cc12 [Compound 362, (1R,3S,5R)-2-(2-(3-acetyl-5-(2-methylpyrimidin-5-yl)-1H-indazol-1-yl)acetyl)-N-(6-bromo-3-(5-isopropyl-1,3,4-oxadiazol-2-yl)pyridin-2-yl)-5-methyl-2-azabicyclo[3.1.0]hexane-3-carboxamide]",1000 to 10000
6,"COc1ccc(Br)nc1NC(=O)[C@@H]1C[C@@]2(C)C[C@H]2N1C(=O)Cn1nc(C(C)=O)c2cc(-c3cnc(C)nc3)ccc21 [Compound 363, (1R,3S,5R)-2-(2-(3-acetyl-5-(2-methylpyrimidin-5-yl)-1H-indazol-1-yl)acetyl)-N-(6-bromo-3-methoxypyridin-2-yl)-5-methyl-2-azabicyclo[3.1.0]hexane-3-carboxamide]",< 1000
7,"CC(=O)c1nn(CC(=O)N2[C@H](C(=O)Nc3nc(Br)ccc3CN3CC(F)C3)C[C@@]3(C)C[C@@H]23)c2ccc(-c3cnc(C)nc3)cc12 [Compound 364, (1R,3S,5R)-2-(2-(3-acetyl-5-(2-methylpyrimidin-5-yl)-1H-indazol-1-yl)acetyl)-N-(6-bromo-3-((3-fluoroazetidin-1-yl)methyl)pyridin-2-yl)-5-methyl-2-azabicyclo[3.1.0]hexane-3-carboxamide]",< 1000
8,"CC(=O)c1nn(CC(=O)N2[C@H](C(=O)Nc3nc(Br)ccc3CC#N)C[C@@]3(C)C[C@@H]23)c2c(C)cc(-c3cnc(C)nc3)cc12 [Compound 365, (1R,3S,5R)-2-(2-(3-acetyl-7-methyl-5-(2-methylpyrimidin-5-yl)-1H-indazol-1-yl)acetyl)-N-(6-bromo-3-(cyanomethyl)pyridin-2-yl)-5-methyl-2-azabicyclo[3.1.0]hexane-3-carboxamide]",< 1000
9,"CC(=O)c1nn(CC(=O)N2[C@H](C(=O)Nc3nc(Br)ccc3C)C[C@@]3(CN4CC5(CC5)C4)C[C@@H]23)c2c(C)cc(-c3cnc(C)nc3)cc12 [Compound 366, (1R,3S,5R)-5-(5-azaspiro[2.3]hexan-5-ylmethyl)-2-(2-(3-acetyl-7-methyl-5-(2-methylpyrimidin-5-yl)-1H-indazol-1-yl)acetyl)-N-(6-bromo-3-methylpyridin-2-yl)-2-azabicyclo[3.1.0]hexane-3-carboxamide]",< 1000
10,"Cc1ncc(-c2ccc3c(c2)c(CC#N)nn3CC(=O)N2[C@H](C(=O)Nc3nc(Br)ccc3C)C[C@@]3(C)C[C@@H]23)cn1 [Compound 367, (1R,3S,5R)-N-(6-bromo-3-methylpyridin-2-yl)-2-(2-(3-(cyanomethyl)-5-(2-methylpyrimidin-5-yl)-1H-indazol-1-yl)acetyl)-5-methyl-2-azabicyclo[3.1.0]hexane-3-carboxamide]",> 10000
11,"Cc1ncc(-c2ccc3c(c2)c(C(C)(C)C#N)nn3CC(=O)N2[C@H](C(=O)Nc3nc(Br)ccc3C)C[C@@]3(C)C[C@@H]23)cn1 [Compound 368, (1R,3S,5R)-N-(6-bromo-3-methylpyridin-2-yl)-2-(2-(3-(2-cyanopropan-2-yl)-5-(2-methylpyrimidin-5-yl)-1H-indazol-1-yl)acetyl)-5-methyl-2-azabicyclo[3.1.0]hexane-3-carboxamide]",> 10000
12,"CC(=O)c1nn(CC(=O)N2[C@H](C(=O)Nc3nc(Br)ccc3C)C[C@@]3(CN4CC5(CC5)C4)C[C@@H]23)c2c(CF)cc(-c3cnc(C)nc3)cc12 [Compound 369, (1R,3S,5R)-5-(5-azaspiro[2.3]hexan-5-ylmethyl)-2-(2-(3-acetyl-7-(fluoromethyl)-5-(2-methylpyrimidin-5-yl)-1H-indazol-1-yl)acetyl)-N-(6-bromo-3-methylpyridin-2-yl)-2-azabicyclo[3.1.0]hexane-3-carboxamide]",< 1000
13,"CC(=O)c1nn(CC(=O)N2[C@H](C(=O)Nc3nc(Br)ccc3C)C[C@@]3(CN4CC5(CC5)C4)C[C@@H]23)c2c(C)nc(-c3cnc(C)nc3)cc12 [Compound 370, (1R,3S,5R)-5-(5-azaspiro[2.3]hexan-5-ylmethyl)-2-(2-(3-acetyl-7-methyl-5-(2-methylpyrimidin-5-yl)-1H-pyrazolo[3,4-c]pyridin-1-yl)acetyl)-N-(6-bromo-3-methylpyridin-2-yl)-2-azabicyclo[3.1.0]hexane-3-carboxamide]",< 1000

# Same assay, conditions: Table 8; Factor D 80 nM, substrate Z-L-Lys-SBz; read-out: IC50
row,SMILES,IC50 [nM]
1,"COC(=O)CCCCCCCCCCCCCCCCC(=O)N[C@@H](CCC(=O)NCCOCCOCC(=O)NCCOCCOCC(=O)NC[C@@]12C[C@@H](C(=O)Nc3nc(Br)ccc3C)N(C(=O)Cn3nc(C(C)=O)c4cc(-c5cnc(C)nc5)ccc43)[C@@H]1C2)C(=O)OC [Compound 358, (S)-methyl 1-((1R,3S,5R)-2-(2-(3-acetyl-5-(2-methylpyrimidin-5-yl)-1H-indazol-1-yl)acetyl)-3-((6-bromo-3-methylpyridin-2-yl)carbamoyl)-2-azabicyclo[3.1.0]hexan-5-yl)-24-(methoxycarbonyl)-3,12,21,26-tetraoxo-5,8,14,17-tetraoxa-2,11,20,25-tetraazatritetracontan-43-oate]",> 10000
